In paper PMC8011376 (Journal of the American Chemical Society, 2020):

Tests used:
Assay in all cases: MIC determination, broth microdilution
E. coli DH5α = type: cell-based, Escherichia coli; conditions: listed as measured MICs for polymyxin-supplemented assays
K. pneumoniae = type: cell-based, Klebsiella pneumoniae; conditions: listed as measured MICs for polymyxin-supplemented assays
P. aeruginosa = type: cell-based, Pseudomonas aeruginosa; conditions: listed as measured MICs for polymyxin-supplemented assays
A. baumannii = type: cell-based, Acinetobacter baumannii; conditions: listed as measured MICs for polymyxin-supplemented assays
E. cloacae ATCC 13047 = type: cell-based, Enterobacter cloacae

With polymyxin the MIC of polymyxin (E. coli DH5α) was 0.0625 µg/mL, the MIC of polymyxin (K. pneumoniae) was 0.15 µg/mL and the MIC of polymyxin (P. aeruginosa) was 0.15 µg/mL. The MIC of polymyxin (A. baumannii) was 0.3 µg/mL, the MIC of polymyxin (E. cloacae ATCC 13047; E. cloacae ATCC 13047, strain not susceptible (note)) was greater than 64 µg/mL and the MIC of polymyxin (E. cloacae ATCC 13047; E. cloacae, value in the list of measured MICs) was 2 µg/mL.
